According to ChEMBL document CHEMBL3880439, “Cyclopentanone and cyclopentanone derivatives as potent activators of HSF-1” (2004):

Tests used:
[1] = tested on: Respirovirus muris; experiment: Antiviral activity against Sendai virus infected in African green monkey 37RC cells assessed as inhibition of viral replication at 24 hrs by haemagglutinin titration method; assay type: functional; conditions: read-out: ID50 (the source's name)
[2] = Cytotoxicity against human HeLa cells incubated for 8 hrs measured after 6 hrs by Alamar blue assay; assay type: cell-based; conditions: read-out: LC50
[3] = target: Heat shock factor protein (Homo sapiens) (UniProt Q00613+Q03933+Q9ULV5); experiment: Activation of HSF in human HeLa cell clone 13B after 8 hrs by luciferase reporter gene assay; assay type: cell-based
[4] = Cytotoxicity against African green monkey 37RC cells by microscopic method; assay type: cell-based; conditions: chlorocebus aethiops
[5] = Cytotoxicity against African green monkey 37RC cells incubated for 8 hrs measured after 6 hrs by neutral red assay; assay type: cell-based; conditions: chlorocebus aethiops, read-out: LC50
[6] = Toxicity in iv dosed anaesthetized rat assessed as decrease in blood pressure administered as infusion; assay type: organism-based; conditions: in vivo

Work on CCCCC1C=CC(=O)/C1=C/C(C)C (configuration not stated) yielded an IC50 [1] of 0.3 µM, a CC50 at 8 h [2] of 506 µM and an AC200 [3] of 13 µM. The TD100 [4] was 10 µM.

In the case of O=C1C[C@H](Sc2ccc3ccccc3c2)[C@H](NC(=O)Oc2ccccc2)C1, the AC200 [3] is reported as 28 µM and the CC50 at 8 h [5] is reported as 183 µM.

In the case of CC(C)/C=C1/C(=O)C=C[C@H]1NC(=O)OC(C)(C)C, the IC50 [1] is reported as 0.4 µM, the CC50 at 8 h [2] is reported as over 800 µM and the AC200 [3] is reported as 5 µM. For the same compound, the CC50 at 8 h [5] was 4 µM and the TD100 [4] was 10 µM.

Cc1ccc(S(=O)(=O)NC(=O)OC2C=CC(=O)C2)cc1 (configuration not stated) gave a CC50 at 8 h [2] of over 800 µM and an AC200 [3] of 13 µM.

In the case of COC(=O)[C@H](CSC1CC(=O)/C(=C/C(C)C)C1C)NC(=O)OC(C)(C)C (some centres not stated), the CC50 at 8 h [2] is reported as over 800 µM and the AC200 [3] is reported as 18 µM.

Compound CCCCC1C=CC(=O)/C1=C/CC(C)C (configuration not stated) has an IC50 [1] of 0.3 µM, a CC50 at 8 h [2] of 227 µM and an AC200 [3] of 13 µM. For the same compound, the TD100 [4] was 50 µM.

For C[C@H]1C=CC(=O)/C1=C/c1ccc([N+](=O)[O-])cc1, the CC50 at 8 h [2] was over 800 µM and the AC200 [3] was 2 µM.

With CC(C)(C)OC(=O)NC1C=CC(=O)C1 (configuration not stated) the IC50 [1] was 20 µM, the CC50 at 8 h [2] was over 800 µM and the AC200 [3] was 51 µM. For the same compound, the TD100 [4] was 100 µM.

Work on CC(C)/C=C1/C(=O)C=CC1C (configuration not stated) yielded a CC50 at 8 h [2] of over 800 µM and an AC200 [3] of 13 µM.

With CC(C)(C)OC(=O)NC1C=CC(=O)/C1=C/c1ccccc1 (configuration not stated) the IC50 [1] was 0.6 µM, the CC50 at 8 h [2] was over 800 µM and the AC200 [3] was 1.8 µM. The CC50 at 8 h [5] was 33 µM and the TD100 [4] was 10 µM.

CCOC(=O)NC1C=CC(=O)C1 (configuration not stated) gave an AC200 [3] of 49 µM and a CC50 at 8 h [5] of 104 µM.

In the case of O=C1C=CC(Nc2ccccc2)C1 (configuration not stated), the CC50 at 8 h [2] is reported as over 800 µM and the AC200 [3] is reported as 27 µM.

With CC(C)(C)OC(=O)N[C@@H](CS[C@@H]1CC(=O)/C(=C/c2ccccc2)[C@H]1NC(=O)OC(C)(C)C)C(=O)O the AC200 [3] was under 6.2 µM and the CC50 at 8 h [5] was 25 µM.

In the case of O=C1C=CC(NC(=O)CCl)C1 (configuration not stated), the AC200 [3] is reported as under 6.2 µM and the CC50 at 8 h [5] is reported as 79 µM.

Work on CCCCCC/C=C1/C(=O)C=CC1C (configuration not stated) yielded a CC50 at 8 h [2] of 234 µM and an AC200 [3] of under 6.2 µM.

In the case of CCCCC/C=C1/C(=O)C=CC1C (configuration not stated), the CC50 at 8 h [2] is reported as over 800 µM and the AC200 [3] is reported as over 100 µM.

Cc1cc(C)c(/C=C2/C(=O)C=C[C@@H]2NC(=O)OC(C)(C)C)c(C)c1 gave an AC200 [3] of under 6.2 µM and a CC50 at 8 h [5] of 25 µM.

With CCCCC[C@H](O)/C=C/[C@H]1[C@H](O)CC(=O)[C@@H]1CCCCCCC(=O)O [ALPROSTADIL] the Activity [6] was “Toxic”.

O=C1C=CC(NC(=O)Oc2ccccc2)C1 (configuration not stated) showed an AC200 [3] of 10 µM and a CC50 at 8 h [5] of 74 µM.

For CC(C)/C=C1/C(=O)C=CC1NC(=O)OC(C)(C)C (configuration not stated), the IC50 [1] was 1 µM, the CC50 at 8 h [2] was over 800 µM and the AC200 [3] was 2.8 µM. It also gave a CC50 at 8 h [5] of 4 µM and a TD100 [4] of 50 µM.

CC1C=CC(=O)/C1=C/c1ccccc1 (configuration not stated) showed an IC50 [1] of 0.9 µM, a CC50 at 8 h [2] of 314 µM and an AC200 [3] of 3 µM. For the same compound, the TD100 [4] was 50 µM.

In the case of CCCCC1C=CC(=O)/C1=C/C1CC1 (configuration not stated), the CC50 at 8 h [2] is reported as 239 µM and the AC200 [3] is reported as 8 µM.

In the case of CCOC(=O)N(C(=O)OC(C)(C)C)C1C=CC(=O)C1 (configuration not stated), the AC200 [3] is reported as 18 µM and the CC50 at 8 h [5] is reported as 233 µM.

CC(C)(C)OC(=O)NC1C=CC(=O)/C1=C/c1ccc(Cl)cc1 (configuration not stated) showed an IC50 [1] of 0.6 µM, a CC50 at 8 h [2] of over 800 µM and an AC200 [3] of 2 µM. The CC50 at 8 h [5] was 3.4 to 72 µM and the TD100 [4] was 10 µM.

Work on CC(C)/C=C1/C(=O)C=C[C@@H]1NC(=O)OC(C)(C)C yielded an IC50 [1] of 1 µM, a CC50 at 8 h [2] of over 800 µM and an AC200 [3] of 1.8 µM. It also gave a CC50 at 8 h [5] of 4 µM and a TD100 [4] of 50 µM.

For COC(=O)[C@H](CS[C@@H]1CC(=O)C[C@H]1NC(=O)Oc1ccccc1)NC(=O)OC(C)(C)C, the AC200 [3] was 13 µM and the CC50 at 8 h [5] was 76 µM.

In the case of CC(C)/C=C1\C(=O)C=CC1NC(=O)c1ccccc1 (configuration not stated), the IC50 [1] is reported as 0.3 µM, the CC50 at 8 h [2] is reported as 50 µM and the AC200 [3] is reported as under 6.2 µM. It also gave a CC50 at 8 h [5] of 4 µM and a TD100 [4] of 10 µM.

For O=C1C[C@@H](NC(=O)Oc2ccccc2)[C@H](Sc2ccc3ccccc3c2)C1, the AC200 [3] was 26 µM and the CC50 at 8 h [5] was 113 µM.

For CCCCC[C@H](O)/C=C/[C@H]1C=CC(=O)[C@@H]1CCCCCCC(=O)O [PROSTAGLANDIN A1], the Activity [6] was “Toxic”.

O=C1C=CC(NC(=O)c2ccccc2)C1 (configuration not stated) showed an IC50 [1] of 20 µM, a CC50 at 8 h [2] of over 800 µM and an AC200 [3] of 51 µM. For the same compound, the CC50 at 8 h [5] was 59 µM and the TD100 [4] was 100 µM.
